In patent US9067898B1, “Isothiazole derivatives as GPR120 agonists for the treatment of type II diabetes” (Janssen Pharmaceutica NV, priority 2014, dated 2015):

Assays:
[1] = biological target: T1, long form of human GPR120 (Homo sapiens, UniProt Q5NUL3); test: Human GPR120 DiscoveRx PathHunter Beta-Arrestin assay, Procedure β-arrestin A; type: cell-based; conditions: PathHunter CHO-K1 GPR120 β-Arrestin cell line, 3000 cells per well, read-out: hGPR120 β-arrestin A EC50
T1 construct: host or cells: PathHunter CHO-K1 GPR120 β-Arrestin Cell Line
Method in brief: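 PathHunter CHO-K1 β-arrestin cells expressed long-form GPR120 (Procedure A, 3000 cells/well) or short-form GPR120 (Procedure B, 5000 cells/well). Compounds were serially diluted from 25 µM and incubated 90 min at 37 °C in HBSS/20 mM HEPES/0.1% BSA, pH 7.4. Luminescence was read after 60 min detection at RT; EC50 comes from % activity versus positive control, Hill slope fixed at 1.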

[2] = biological target: T2, Human GPR120 short form (Homo sapiens, UniProt Q5NUL3); test: Human GPR120 calcium flux assay (FLIPR), Procedure Calcium A; type: cell-based; conditions: HEK-293 cells expressing human GPR120 short form, 2500 cells/well; read-out: GPR120 Ca2+ Assay A EC50
T2 construct: expressed in transfected cells
T2 sequence (Q5NUL3 1-361): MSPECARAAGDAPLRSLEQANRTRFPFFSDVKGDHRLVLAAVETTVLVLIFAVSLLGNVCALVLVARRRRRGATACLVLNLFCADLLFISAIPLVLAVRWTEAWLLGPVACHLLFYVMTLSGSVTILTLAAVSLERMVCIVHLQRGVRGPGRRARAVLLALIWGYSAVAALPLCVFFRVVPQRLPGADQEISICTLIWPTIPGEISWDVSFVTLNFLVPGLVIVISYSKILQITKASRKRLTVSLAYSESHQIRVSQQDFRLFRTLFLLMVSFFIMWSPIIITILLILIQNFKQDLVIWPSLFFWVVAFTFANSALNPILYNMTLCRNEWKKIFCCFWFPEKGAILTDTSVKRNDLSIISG
Method in brief: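 HEK293 cells stably expressing the short isoform (NM_001195755.1), 2500/well, starved 1 h, then loaded with Fluo-4 NW plus probenecid (30 min 37 °C, 15 min RT). Compound solutions 0.012–100 μM, 0.2% DMSO final; FLIPR read 300 s after addition. EC50 from Fmax−Fmin fitted to variable-slope sigmoid (Hill <2).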

T1 sequence (Q5NUL3 1-377 isoform Q5NUL3-1): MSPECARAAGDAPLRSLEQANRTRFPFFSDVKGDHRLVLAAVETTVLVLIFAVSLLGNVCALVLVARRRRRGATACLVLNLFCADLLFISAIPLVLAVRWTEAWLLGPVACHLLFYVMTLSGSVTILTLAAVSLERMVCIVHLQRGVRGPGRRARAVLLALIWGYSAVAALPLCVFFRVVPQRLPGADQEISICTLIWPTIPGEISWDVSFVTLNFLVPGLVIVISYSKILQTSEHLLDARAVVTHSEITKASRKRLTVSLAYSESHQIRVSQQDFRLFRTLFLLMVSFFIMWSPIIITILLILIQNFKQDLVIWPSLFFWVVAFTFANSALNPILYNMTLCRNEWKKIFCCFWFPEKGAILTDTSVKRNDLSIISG
T1 sequence (P32121 whole entry partner): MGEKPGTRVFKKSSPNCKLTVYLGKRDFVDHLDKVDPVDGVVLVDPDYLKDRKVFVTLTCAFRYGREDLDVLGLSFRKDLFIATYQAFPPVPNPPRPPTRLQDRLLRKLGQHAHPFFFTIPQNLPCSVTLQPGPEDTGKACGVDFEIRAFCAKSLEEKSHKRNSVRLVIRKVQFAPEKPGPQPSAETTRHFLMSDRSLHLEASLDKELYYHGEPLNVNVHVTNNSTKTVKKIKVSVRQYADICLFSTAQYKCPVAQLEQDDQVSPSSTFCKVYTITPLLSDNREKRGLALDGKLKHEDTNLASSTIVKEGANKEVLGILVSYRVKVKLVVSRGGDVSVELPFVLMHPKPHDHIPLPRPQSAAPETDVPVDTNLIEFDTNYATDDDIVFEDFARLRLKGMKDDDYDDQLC

SMILES	EC50 [1]	EC50 [2]
CCc1ccc(-c2nsc(C(F)(F)F)c2COc2c(F)cc(CCCO)c(F)c2F)cc1 [Cpd 238, 3-(4-((3-(4-ethylphenyl)-5-(trifluoromethyl)isothiazol-4-yl)methoxy)-2,3,5-trifluorophenyl)propan-1-ol]	0.09 µM	0.521 µM
CCc1nsc(-c2ccc(C)cc2F)c1COc1c(F)cc(CCC(=O)O)cc1F [Cpd 150, 3-(4-[[3-ethyl-5-(2-fluoro-4-methylphenyl)-1,2-thiazol-4-yl]methoxy]-3,5-difluorophenyl)propanoic acid]	0.24 µM	0.167 µM
O=C(O)CCc1cc(F)c(OCc2c(-c3ccc(Cl)cc3)csc2C(F)(F)F)c(F)c1 [Cpd 35, 3-(4-((4-(4-chlorophenyl)-2-(trifluoromethyl)thiophen-3-yl)methoxy)-3,5-difluorophenyl)propanoic acid]	0.27 µM	0.07 µM
O=C(O)CCc1cc(F)c(OCc2c(-c3ccc4c(c3)OCO4)nsc2C(F)(F)F)c(F)c1 [Cpd 87, 3-(4-[[3-(2H-1,3-benzodioxol-5-yl)-5-(trifluoromethyl)-1,2-thiazol-4-yl]methoxy]-3,5-difluorophenyl)propanoic acid]	0.088 µM	0.062 µM
COc1ccc(-c2csc(C(F)(F)F)c2COc2c(F)cc(CCCO)cc2F)cc1 [Cpd 45, 3-(3,5-difluoro-4-((4-(4-methoxyphenyl)-2-(trifluoromethyl)thiophen-3-yl)methoxy)phenyl)propan-1-ol]	0.123 µM	0.154 µM
Cc1c(CCC(=O)O)cc(F)c(OCc2csnc2-c2ccc(Cl)cc2)c1F [Cpd 231, 3-(4-((3-(4-chlorophenyl)isothiazol-4-yl)methoxy)-3,5-difluoro-2-methylphenyl)propanoic acid]	0.961 µM	1.02 µM
CCc1ccc(-c2sc(C)c(C(F)(F)F)c2COc2c(F)cc(CCCO)cc2F)cc1 [Cpd 32, 3-(4-[[2-(4-ethylphenyl)-5-methyl-4-(trifluoromethyl)thiophen-3-yl]methoxy]-3,5-difluorophenyl)propan-1-ol]	0.031 µM	0.048 µM
CC(CO)Cc1cc(F)c(OCc2c(-c3ccc(Cl)cc3)nsc2C(F)(F)F)c(F)c1 (stereo not shown) [Cpd 230, 3-(4-[[3-(4-chlorophenyl)-5-(trifluoromethyl)-1,2-thiazol-4-yl]methoxy]-3,5-difluorophenyl)-2-methylpropan-1-ol]	0.474 µM	1.02 µM
O=C(O)CCc1cc(F)c(OCc2c(-c3ccc4c(c3)CCO4)csc2C(F)(F)F)c(F)c1 [Cpd 51, 3-(4-((4-(2,3-dihydrobenzofuran-5-yl)-2-(trifluoromethyl)thiophen-3-yl)methoxy)-3,5-difluorophenyl)propanoic acid]	0.213 µM	0.172 µM
COc1nsc(-c2ccc(C)cc2F)c1COc1c(F)cc(CCC(=O)O)cc1F [Cpd 123, 3-(3,5-difluoro-4-[[5-(2-fluoro-4-methylphenyl)-3-methoxy-1,2-thiazol-4-yl]methoxy]phenyl) propanoic acid]	0.303 µM	0.111 µM
O=C(O)CCc1ccc(OCc2c(-c3ccc(Cl)cc3)nsc2C(F)(F)F)c(Br)c1 [Cpd 69, 3-(3-bromo-4-[[3-(4-chlorophenyl)-5-(trifluoromethyl)-1,2-thiazol-4-yl]methoxy]phenyl)propanoic acid]	0.083 µM	0.031 µM
Cc1c(CCC(=O)O)ccc(OCc2c(Cl)nsc2-c2ccc(Cl)cc2F)c1C [Cpd 122]	1.29 µM	0.109 µM
CCc1ccc(-c2ccsc2COc2c(F)cc(CCCO)cc2F)cc1 [Cpd 20, 3-(4-[[3-(4-ethylphenyl)thiophen-2-yl]methoxy]-3,5-difluorophenyl)propan-1-ol]	0.168 µM	0.657 µM
CCc1ccc(-c2cc(Cl)sc2COc2c(F)cc(CCCO)cc2F)cc1 [Cpd 9, 3-(4-[[5-chloro-3-(4-ethylphenyl)thiophen-2-yl]methoxy]-3,5-difluorophenyl)propan-1-ol]	0.203 µM	0.117 µM
Cc1c(CCC(=O)O)ccc(OCc2csnc2-c2ccc(Cl)cc2)c1C [Cpd 166, 3-(4-((3-(4-chlorophenyl)isothiazol-4-yl)methoxy)-2,3-dimethylphenyl)propanoic acid]	1.34 µM	0.217 µM

The next lines start with the values.

EC50 [1]	EC50 [2]	SMILES
0.304 µM	0.17 µM	CCc1ccc(-c2sccc2COc2ccc(CCC(=O)O)c(C)c2C)cc1 [Cpd 49, 3-(4-((2-(4-ethylphenyl)thiophen-3-yl)methoxy)-2,3-dimethylphenyl)propanoic acid]
0.108 µM	0.019 µM	CCc1ccc(-c2snc(Cl)c2COc2ccc(CCC(=O)O)c(F)c2F)cc1 [Cpd 66, 3-(4-[[3-chloro-5-(4-ethylphenyl)-1,2-thiazol-4-yl]methoxy]-2,3-difluorophenyl)propanoic acid]
0.229 µM	0.579 µM	CCc1ccc(-c2snc(Cl)c2COc2ccc(CCCO)c(C)c2C)cc1 [Cpd 209, 3-(4-((3-chloro-5-(4-ethylphenyl)isothiazol-4-yl)methoxy)-2,3-dimethylphenyl)propan-1-ol]
0.125 µM	0.135 µM	CCc1ccc(-c2cc(F)sc2COc2ccc(CCC(=O)O)c(F)c2F)cc1 [Cpd 12, 3-(4-[[3-(4-ethylphenyl)-5-fluorothiophen-2-yl]methoxy]-2,3-difluorophenyl)propanoic acid]
0.244 µM	0.098 µM	CCc1ccc(-c2snc(Cl)c2COc2c(F)cc(CCC(=O)O)c(F)c2F)cc1 [Cpd 111, 3-(4-((3-chloro-5-(4-ethylphenyl)isothiazol-4-yl)methoxy)-2,3,5-trifluorophenyl)propanoic acid]
0.081 µM	0.067 µM	Cc1c(CCC(=O)O)ccc(OCc2c(Cl)nsc2-c2ccc(Cl)cc2)c1C [Cpd 88, 3-(4-[[3-chloro-5-(4-chlorophenyl)-1,2-thiazol-4-yl]methoxy]-2,3-dimethylphenyl)propanoic acid]
0.098 µM	0.086 µM	O=C(O)CCc1ccc(OCc2c(-c3ccc(Cl)cc3)nsc2C(F)(F)F)c(F)c1F [Cpd 106, 3-(4-[[3-(4-chlorophenyl)-5-(trifluoromethyl)-1,2-thiazol-4-yl]methoxy]-2,3-difluorophenyl)propanoic acid]
0.265 µM	0.163 µM	CCc1ccc(-c2cc(Cl)sc2COc2ccc(CCCO)c(F)c2F)cc1 [Cpd 14, 3-(4-[[5-chloro-3-(4-ethylphenyl)thiophen-2-yl]methoxy]-2,3-difluorophenyl)propan-1-ol]
0.711 µM	0.142 µM	CCc1ccc(-c2cscc2COc2ccc(CCC(=O)O)c(C)c2C)cc1 [Cpd 41, 3-(4-((4-(4-ethylphenyl)thiophen-3-yl)methoxy)-2,3-dimethylphenyl)propanoic acid]
0.498 µM	0.163 µM	CCc1ccc(-c2cc(C)sc2COc2ccc(CCC(=O)O)c(C)c2C)cc1 [Cpd 13, 3-(4-((3-(4-ethylphenyl)-5-methylthiophen-2-yl)methoxy)-2,3-dimethylphenyl)propanoic acid]
0.254 µM	0.104 µM	CCc1ccc(-c2nsc(C(F)(F)F)c2COc2c(F)cc(CCC(=O)O)c(F)c2F)cc1 [Cpd 117, 3-(4-((3-(4-ethylphenyl)-5-(trifluoromethyl)isothiazol-4-yl)methoxy)-2,3,5-trifluorophenyl)propanoic acid]
